Test results as given in patent publication US8637523B2, “Compounds for the reduction of beta-amyloid production” (Bristol-Myers Squibb Company, priority 2010, dated 2014).

Test system: Aβ42
Test: Cellular assay for inhibition of Aβ1-42 production (H4 APP751 SWE clone 8.20)
Type: cell-based
Conditions: 19 h, H4 APP751 SWE clone 8.20 cells, 19 h incubation; read-out: Activity Rating (Aβ42 cellular IC50), class symbol
Experimental: Cellular Assays for Inhibition of Aβ1-40 and Aβ1-42 Production
H4 cells stably transfected with APP751 containing the Swedish mutation (H4 APP751 SWE clone 8.20, developed at BMS) were maintained in log phase through twice weekly passage at a 1:20 split. […] Following incubation for 19 h in 5% CO2 at 37° C., plates were briefly centrifuged (1000 rpm, 5 min). A 10 μl aliquot from each well was transferred to a second assay plate (Costar 3709) for Aβ40 measurements. Antibody cocktails were freshly prepared by dilution into 40 mM Tris-HCl (pH 7.4) with 0.2% BSA and added to assay plates. For Aβ42 measurements, antibodies specific for the Aβ42 neoepitope (565, developed at BMS; conjugated to the Wallac reagent (Perkin Elmer)) and the N-terminal sequence of Aβ peptide (26D6, developed at SIBIA; conjugated to APC (Perkin Elmer)) were mixed and 20 μl of the mixture was added to each well of the incubated cell plate yielding a final concentration of 0.8 ng/well 565 and 75 ng/well 26D6. For the Aβ40 measurements, antibodies specific for the Aβ40 neoepitope (TSD, developed at BMS; conjugated to the Wallac reagent (Perkin Elmer)) and 26D6 as described above were mixed and 20 μl of the mixture was added to the 10 μl aliquots which had been removed previously from the cell plate yielding a final concentration of 1.6 ng/well TSD and 17.5 ng/well 26D6. Assay plates containing antibodies were sealed with aluminum foil and incubated overnight at 4° C. Signal was determined using a Viewlux counter (Perkin Elmer) and IC50 values determined using curve fitting in CurveMaster (Excel Fit based).

| SMILES | IC50 |
| --- | --- |
| Cc1ncn(-c2ccc3cc2OCCCCNc2nc(nc4c2CN(C)CC4c2ccc(F)cc2)N3)n1 (racemic) [Example 70B, 19-(4-fluorophenyl)-17-methyl-7-(3-methyl-1H-1,2,4-triazol-1-yl)-11,12,13,14,16,17,18,19-octahydro-10H-15,2-(azeno)-8,4-(metheno)pyrido[3,4-h][1,6,10,12]oxatriazacycloheptadecine] | < 10 nM |
| CN1Cc2c3nc(nc2C(c2ccc(F)cc2)C1)Nc1ccc(C#N)c(c1)OCCCCN3 (racemic) [Example 71, 7-cyano-19-(4-fluorophenyl)-17-methyl-11, 12, 13,14,16,17,18,19-octahydro-10H-15,2-(azeno)-8,4-(metheno)pyrido[3,4-h][1,6,10,12]oxatriazacycloheptadecine] | 10 to 100 nM |
| CN1Cc2c(nc3nc2N(C)C/C=C\COc2cc(ccc2C#N)N3)C(c2ccc(F)cc2)C1 (racemic) [Example 74, (11Z)-14,17-dimethyl-7-cyano-19-(4-fluorophenyl)-13,14,16,17,18,19-hexahydro-10H-15,2-(azeno)-8,4-(metheno)pyrido[3,4-h][1,6,10,12]oxatriazacycloheptadecine] | 10 to 100 nM |

Same assay, conditions: H4 APP751 SWE clone 8.20 cells, 19 h incubation; read-out: Activity Rating (Aβ42 cellular IC50), class symbol

| SMILES | IC50 |
| --- | --- |
| Cc1ncn(-c2ccc3cc2OCCCCNc2nc(nc4c2CN(C)CC4c2ccc(F)cc2)N3)n1 (racemic) [Example 70A, 19-(4-fluorophenyl)-17-methyl-7-(3-methyl-1H-1,2,4-triazol-1-yl)-11,12,13,14,16,17,18,19-octahydro-10H-15,2-(azeno)-8,4-(metheno)pyrido[3,4-h][1,6,10,12]oxatriazacycloheptadecine] | 10 to 100 nM |
| Clc1cn(-c2ccc3cc2OC/C=C\CCc2nc(nc4c2CCC4c2ccccc2)N3)cn1 (single isomer, unassigned) [Example 16A, (11Z)-7-(4-chloro-1H-imidazol-1-yl)-18-phenyl-10,13,14,16,17,18-hexahydro-15,2-(azeno)-8,4-(metheno)cyclopenta[h][1,10,12]oxadiazacycloheptadecine] | < 10 nM |
| Clc1cn(-c2ccc3cc2OC/C=C\CCc2nc(nc4c2CCC4c2ccccc2)N3)cn1 (single isomer, unassigned) [Example 16B, (11Z)-7-(4-chloro-1H-imidazol-1-yl)-18-phenyl-10,13,14,16,17,18-hexahydro-15,2-(azeno)-8,4-(metheno)cyclopenta[h][1,10,12]oxadiazacycloheptadecine] | 10 to 100 nM |
| N#Cc1ccc2cc1OCCNCCNc1nc(nc3c1CCC3c1ccc(F)cc1)N2 (single isomer, unassigned) [Example 26A, 7-cyano-19-(4-fluorophenyl)-11,12,13,14,15,17,18,19-octahydro-10H-16,2-(azeno)-8,4-(metheno)cyclopenta[i][1,4,7,11,13]oxatetraazacyclooctadecine] | 10 to 100 nM |
| N#Cc1ccc2cc1OCCNCCNc1nc(nc3c1CCC3c1ccc(F)cc1)N2 (single isomer, unassigned) [Example 26B, 7-cyano-19-(4-fluorophenyl)-11,12,13,14,15,17,18,19-octahydro-10H-16,2-(azeno)-8,4-(metheno)cyclopenta[i][1,4,7,11,13]oxatetraazacyclooctadecine] | 100 to 1000 nM |
| CN1CCNc2nc(nc3c2CCC3c2ccc(F)cc2)Nc2ccc(C#N)c(c2)OCC1 (single isomer, unassigned) [Example 27A, 7-cyano-19-(4-fluorophenyl)-12-methyl-11,12,13,14,15,17,18,19-octahydro-10H-16,2-(azeno)-8,4-(metheno)cyclopenta[i][1,4,7,11,13]oxatetraazacyclooctadecine] | 10 to 100 nM |
| CN1CCNc2nc(nc3c2CCC3c2ccc(F)cc2)Nc2ccc(C#N)c(c2)OCC1 (single isomer, unassigned) [Example 27B, 7-cyano-19-(4-fluorophenyl)-12-methyl-11,12,13,14,15,17,18,19-octahydro-10H-16,2-(azeno)-8,4-(metheno)cyclopenta[i][1,4,7,11,13]oxatetraazacyclooctadecine] | 100 to 1000 nM |
